For one compound, IC50, Activity and viability results are on record in ChEMBL document CHEMBL1146483, “Antitumor activity of bruceantin: an old drug with new promise” (J Nat Prod, 2004).

Usually IC50 stands for the concentration that gives 50% inhibition. The low end stands for greater potency in that assay, the high end for weaker potency in that assay.

Data set [1] has as its system HL-60. The data set is described as follows: Induction of apoptosis in human HL60 cells after 24 hrs by DAPI staining. The settings on record: HL-60, 24 h. In kind it is functional, cell-based.
Data set [2] relates to BV-173. Kind of data set: Cytotoxicity against human BV173 cells by trypan blue exclusion method. In kind it is functional, cell-based.
The subject of data set [3] is RPMI-8226. The data set is described as follows: Induction of apoptosis in human RPMI8226 cells after 24 hrs by DAPI staining. In kind it is functional, cell-based. Conditions: RPMI-8226, 24 h.
Data set [4] is described as follows: Cytotoxicity against human DHL6 cells by trypan blue exclusion method. In kind it is functional, cell-based. Conditions: SU-DHL-6.
A short description of data set [5]: Cytotoxicity against human RS4:11 cells by trypan blue exclusion method. In kind it is functional, cell-based.
In data set [6] the test system is RPMI-8226. The data set is described as follows: Antitumor activity in human RPMI8226 cells xenografted in SCID mouse assessed as induction of apoptosis in peripheral proliferating areas at 5 to 12 mg mg/kg, ip administered every 3 days. In kind it is functional.
For data set [7], the system named is REH. The data set is described as follows: Cytotoxicity against human REH cells by trypan blue exclusion method. In kind it is functional, cell-based.
The test system of data set [8] is U-937. Kind of data set: Cytotoxicity against human U937 cells by trypan blue exclusion method. In kind it is functional, cell-based.
Data set [9] deals with HL-60. Kind of data set: Cytotoxicity against human HL60 cells by trypan blue exclusion method. In kind it is functional, cell-based.
Data set [10] has as its system NB-4. Kind of data set: Cytotoxicity against human NB4 cells by trypan blue exclusion method. In kind it is functional, cell-based.
The subject of data set [11] is U-266. The data set is described as follows: Induction of apoptosis in human U266 cells after 24 hrs by DAPI staining. In kind it is functional, cell-based. The settings on record: U-266, 24 h.
In data set [12] the test system is K562. Kind of data set: Cytotoxicity against human K562 cells assessed as cell viability at 50 ng/mL after 4 days by trypan blue exclusion method. In kind it is functional. Conditions: K562, 96 h, read-out: Activity.
For data set [13], the system named is Kasumi 1. The data set is described as follows: Cytotoxicity against human Kasumi-1 cells by trypan blue exclusion method. In kind it is functional, cell-based.
The nature of data set [14]: Cytotoxicity against concanavalin-stimulated human lymphocytes cells assessed as cell viability at 50 ng/mL after 4 days by trypan blue exclusion method. In kind it is cell-based, Lymphocyte. The settings on record: read-out: Activity.
Data set [15] relates to Daudi. The data set is described as follows: Cytotoxicity against human Daudi cells by trypan blue exclusion method. In kind it is functional, cell-based.
The test system of data set [16] is NCI-H929. Kind of data set: Induction of apoptosis in human NCI-H929 cells after 24 hrs by DAPI staining. The settings on record: NCI-H929, 24 h. In kind it is functional, cell-based.
Data set [17] can be described thus: Cytotoxicity against human SUP-B13 cells by trypan blue exclusion method. In kind it is functional, cell-based.

≈ marks a conversion by molar mass, not a printed value.

With `COC(=O)[C@@]12OC[C@]34[C@H]([C@@H](O)[C@@H]1O)[C@@]1(C)CC(=O)C(O)=C(C)[C@@H]1C[C@H]3OC(=O)[C@H](OC(=O)/C=C(\C)C(C)C)[C@@H]24` [BRUCEANTIN], the IC50 in data set [1] was 12.2 nM; in data set [2], less than 0.015 µg/mL; in [3], 12.8 nM; in data set [4] it was less than 0.015 µg/mL; in [5], less than 0.015 µg/mL; in data set [7], 0.02 µg/mL (≈ 0.0365 µM). Also, the IC50 in data set [8] is less than 0.015 µg/mL; in [9] it was 0.02 µg/mL (≈ 0.0365 µM); in [10], less than 0.015 µg/mL; in [11], 49 nM; in data set [13] it was 0.02 µg/mL (≈ 0.0365 µM); in data set [15], less than 0.015 µg/mL. For the same compound, the results for the IC50 in [16] and in [17] were 115 nM and less than 0.015 µg/mL, respectively. In addition, the Activity in data set [6] amounted to 36.6%. Moreover, the viability at 0.05 µg/mL in [12] is 90%. Moreover, the viability at 96 h, 50 ng/mL in data set [14] was determined as 90%.
